Each structure is given as a SMILES string. Where two headings read alike, the source gives them in different places.

What all share (type): biochemical
The target of assay [1] is T1, TYK2 (aa 871-1187, catalytic domain, GST-tag) (Homo sapiens, UniProt P29597).
T1 construct: JAK1 (aa 850-1154) and TYK2 (aa 871-1187) are expressed with an N-terminally fused GST-tag; GST (N); purchased Carna Biosciences, Inc; host or cells: baculovirus expression system
T1 sequence (P29597 871-1187): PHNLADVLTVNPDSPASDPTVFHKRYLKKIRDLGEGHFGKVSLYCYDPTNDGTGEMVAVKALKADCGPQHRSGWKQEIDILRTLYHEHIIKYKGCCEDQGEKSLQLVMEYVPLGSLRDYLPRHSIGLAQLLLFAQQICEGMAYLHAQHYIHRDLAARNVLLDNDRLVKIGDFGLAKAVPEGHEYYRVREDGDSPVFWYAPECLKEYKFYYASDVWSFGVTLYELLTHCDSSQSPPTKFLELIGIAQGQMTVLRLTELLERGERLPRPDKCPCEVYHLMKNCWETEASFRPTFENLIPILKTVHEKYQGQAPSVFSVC
Put plainly: JAK kinase assay (HTRF, phosphorylation of TK substrate-biotin), TYK2. As to conditions: ATP at Km (13 μM), read-out: TYK2 kinase inhibitory activity (EC50 indicator). An outline of the steps: (§1)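 HTRF KinEASE TK format; 1 μM biotinylated peptide, Km ATP: 7 μM (JAK1, 10 mM MgCl2, 50 nM SEB), 4 μM (JAK2), 2 μM (JAK3), 13 μM (TYK2, 50 nM SEB); 5 mM MgCl2 for the latter three. RT 20-30 min, 0.75% DMSO final. Overnight detection, EC50.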
(In general: TR-FRET usually uses a lanthanide donor and a delayed reading to cut background.)

The target in assay [2] is T2, JAK2 (catalytic domain, His-tag) (Homo sapiens, UniProt O60674).
T2 construct: All four purified enzymes contain only the catalytic domain; His (N); purchased Carna Biosciences, Inc; host or cells: baculovirus expression system
The assay can be described thus: JAK kinase assay (HTRF, phosphorylation of TK substrate-biotin), JAK2. As to conditions: ATP at Km (4 μM), read-out: JAK2 kinase inhibitory activity (EC50 indicator). An outline of the steps:
as §1

The target of assay [3] is T3, JAK1 (aa 850-1154, catalytic domain, GST-tag) (Homo sapiens, UniProt P23458).
T3 construct: JAK1 (aa 850-1154) and TYK2 (aa 871-1187) are expressed with an N-terminally fused GST-tag; GST (N); purchased Carna Biosciences, Inc; host or cells: baculovirus expression system
Put plainly: JAK kinase assay (HTRF, phosphorylation of TK substrate-biotin), JAK1. As to conditions: ATP at Km (7 μM), read-out: JAK1 kinase inhibitory activity (EC50 indicator). An outline of the steps: as §1

Assay [4] has as its target T4, JAK3 (catalytic domain, His-tag) (Homo sapiens, UniProt P52333).
T4 construct: All four purified enzymes contain only the catalytic domain; His (N); purchased Carna Biosciences, Inc; host or cells: baculovirus expression system
The assay can be described thus: JAK kinase assay (HTRF, phosphorylation of TK substrate-biotin), JAK3. As to conditions: ATP at Km (2 μM), read-out: JAK3 kinase inhibitory activity (EC50 indicator). An outline of the steps:
as §1

T2 sequence (O60674 849-1124 limits assumed): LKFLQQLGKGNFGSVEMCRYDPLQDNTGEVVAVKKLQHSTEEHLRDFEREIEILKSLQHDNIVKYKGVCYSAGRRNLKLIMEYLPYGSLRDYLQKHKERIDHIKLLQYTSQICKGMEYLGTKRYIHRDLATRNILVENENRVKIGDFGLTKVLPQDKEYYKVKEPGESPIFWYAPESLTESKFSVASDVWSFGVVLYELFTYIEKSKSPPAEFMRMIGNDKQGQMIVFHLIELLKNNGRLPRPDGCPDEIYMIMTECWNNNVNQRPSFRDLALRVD
T4 sequence (P52333 822-1111 limits assumed): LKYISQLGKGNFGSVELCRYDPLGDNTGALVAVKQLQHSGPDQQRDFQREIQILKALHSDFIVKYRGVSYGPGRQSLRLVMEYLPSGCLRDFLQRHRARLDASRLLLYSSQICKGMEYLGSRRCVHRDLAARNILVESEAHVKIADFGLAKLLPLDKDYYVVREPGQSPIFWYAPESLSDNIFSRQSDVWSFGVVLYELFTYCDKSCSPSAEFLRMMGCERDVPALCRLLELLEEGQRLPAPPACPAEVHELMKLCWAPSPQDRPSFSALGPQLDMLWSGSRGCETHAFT
T3 sequence (P23458 850-1154): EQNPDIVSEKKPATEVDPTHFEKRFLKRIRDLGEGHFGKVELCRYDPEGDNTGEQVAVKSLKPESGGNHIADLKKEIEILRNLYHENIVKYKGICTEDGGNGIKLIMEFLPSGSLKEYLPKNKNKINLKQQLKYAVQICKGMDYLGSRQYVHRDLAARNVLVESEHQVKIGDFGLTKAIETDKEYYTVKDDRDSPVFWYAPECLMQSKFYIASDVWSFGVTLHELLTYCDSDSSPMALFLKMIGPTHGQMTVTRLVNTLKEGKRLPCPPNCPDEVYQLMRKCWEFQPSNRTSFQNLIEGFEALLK

Consider `Cc1ccc(S(N)(=O)=O)cc1C(=O)N1CCN(c2ncnc3[nH]ccc23)CC12CC2` [Example 388, 4-Methyl-3-[7-(7H-pyrrolo[2,3-d]pyrimidin-4-yl)-4,7-diaza-spiro[2.5]octane-4-carbonyl]-benzenesulfonamide], for which the EC50 (in general, the midpoint of the concentration-response curve) in assay [1] (HTRF assay) was above 0.5 µM; in assay [2] (HTRF assay), below 0.1 µM; in assay [3] (HTRF assay) it was below 0.1 µM; in assay [4] (HTRF assay), below 0.1 µM.

With `O=C(c1ccccc1)N1[C@@H]2CC[C@H]1CN(c1ncnc3[nH]ccc13)C2` [Example 33, Phenyl-[3-(7H-pyrrolo[2,3-d]pyrimidin-4-yl)-3,8-diazabicyclo[3.2.1]oct-8-yl]methanone], the EC50 in assay [1] is 0.1 to 0.5 µM; in assay [2], below 0.1 µM; in assay [3] it was below 0.1 µM; in assay [4], 0.1 to 0.5 µM.

With `NS(=O)(=O)c1ccc(C(=O)N2CCN(c3ncnc4[nH]ccc34)CC23CC3)o1` [Example 198, 5-[7-(7H-Pyrrolo[2,3-d]pyrimidin-4-yl)-4,7-diaza-spiro[2.5]octane-4-carbonyl]-furan-2-sulfonic acid amide], the concentration for a half-maximal effect (EC50) in assay [1], in assay [2], in assay [3] and in assay [4] was below 0.1 µM throughout.

`CS(=O)(=O)c1cc(C(=O)N2CCN(c3ncnc4[nH]ccc34)CC23CC3)ccc1F` [Example 366, (4-Fluoro-3-methanesulfonyl-phenyl)-[7-(7H-pyrrolo[2,3-d]pyrimidin-4-yl)-4,7-diaza-spiro[2.5]oct-4-yl]-methanone]: the EC50 in assay [1] (HTRF assay) was above 0.5 µM; in assay [2] (HTRF assay) it was below 0.1 µM; in assay [3] (HTRF assay) it was below 0.1 µM; in assay [4] (HTRF assay), 0.1 to 0.5 µM.

Turning to `Cc1ccc(C(=O)N2CCN(c3ncnc4[nH]ccc34)CC23CC3)cc1C(=O)Nc1cccc(C(F)(F)F)c1` [Example 41, 2-Methyl-5-[7-(7H-pyrrolo[2,3-d]pyrimidin-4-yl)-4,7-diazaspiro[2.5]octane-4-carbonyl]-N-(3-trifluoromethylphenyl)benzamide], the EC50 in assay [1] is above 0.5 µM; in assay [2], above 0.5 µM; in assay [3], 0.1 to 0.5 µM; in assay [4] it was above 0.5 µM.

Consider `Cc1cncc(C(=O)N2CCN(c3ncnc4[nH]ccc34)CC23CC3)n1` [Example 418, (6-Methyl-pyrazin-2-yl)-[7-(7H-pyrrolo[2,3-d]pyrimidin-4-yl)-4,7-diaza-spiro[2.5]oct-4-yl]-methanone], for which the EC50 in assay [1] (HTRF assay), in assay [2] (HTRF assay), in assay [3] (HTRF assay) and in assay [4] (HTRF assay) was below 0.1 µM in each case.

Turning to `NS(=O)(=O)c1ccc(CC(=O)N2CCN(c3ncnc4[nH]ccc34)CC23CC3)s1` [Example 195, 5-{2-Oxo-2-[7-(7H-pyrrolo[2,3-d]pyrimidin-4-yl)-4,7-diaza-spiro[2.5]oct-4-yl]-ethyl}-thiophene-2-sulfonic acid amide], the concentration for a half-maximal effect (EC50) in assay [1] is 0.1 to 0.5 µM; in assay [2], below 0.1 µM; in assay [3], below 0.1 µM; in assay [4] it was below 0.1 µM.

With `O=C(c1cc2c(s1)CCC2)N1CCN(c2ncnc3[nH]ccc23)CC12CC2` [Example 61, (5,6-Dihydro-4H-cyclopenta[b]thiophen-2-yl)[7-(7H-pyrrolo[2,3-d]pyrimidin-4-yl)-4,7-diaza-spiro[2.5]oct-4-yl]-methanone], the EC50 in assay [1], in assay [2], in assay [3] and in assay [4] was below 0.1 µM each time.

As for `N#CCCCC(=O)N1CCN(c2nc(N)nc3[nH]ccc23)CC12CC2` [Example 310, 5-[7-(2-Amino-7H-pyrrolo[2,3-d]pyrimidin-4-yl)-4,7-diaza-spiro[2.5]oct-4-yl]-5-oxo-pentanenitrile], the EC50 was above 0.5 µM in assay [1] (HTRF assay), below 0.1 µM in assay [2] (HTRF assay), below 0.1 µM in assay [3] (HTRF assay) and below 0.1 µM in assay [4] (HTRF assay).
